Assay results from patent US7557107B2, “Farnesyl protein transferase inhibitors as antitumor agents” (Schering Coporation, priority 2003, dated 2009).
Where “and” joins values, the source holds several entries; their conditions need not be identical. Equal entries are not always repeated.

Assays:
[1] = target: purified human farnesyl protein transferase (Homo sapiens, UniProt P49354+P49356); assay: FPT activity: transfer of [3H] farnesyl from [3H] farnesyl pyrophosphate to biotinylated H-ras peptide (SPA); type: biochemical; conditions: 0.03 nM enzyme, 37° C., 60 minutes
Procedure: FPT activity was determined by measuring the transfer of [^3H] farnesyl from [^3H] farnesyl pyrophosphate to a biotinylated peptide derived from the C-terminus of H-ras (biotin-CVLS). The reaction mixture contains: 50 mM Tris pH7.7, 5 mM MgCl2, 5 μM Zn^++, 5 mM DTT, 0.1% Triton-X, 0.05 μM peptide, 0.03 nM purified human farnesyl protein transferase, 0.180 μM [^3H] farnesyl pyrophosphate, plus the indicated concentration of tricyclic compound or vehicle control in a total volume of 100 μl. The reaction was incubated in a yortemp shaking incubator at 37° C., 45 RPM for 60 minutes and stopped with 150 μl of 0.25 M EDTA containing 0.5% BSA and 1.3 mg/ml Streptavidin SPA beads. Radioactivity was measured in a Wallach 1450 Microbeta liquid scintillation counter. Percent inhibition was calculated relative to the vehicle control.

Human tumor cells = assay: Soft Agar Assay (anchorage-independent growth); type: cell-based; conditions: colony outgrowth 10-16 days, MTT stain
Procedure: Anchorage-independent growth is a characteristic of tumorigenic cell lines. Human tumor cells can be suspended in growth medium containing 0.3% agarose and an indicated concentration of a famesyl transferase inhibitor. The solution can be overlayed onto growth medium solidified with 0.6% agarose containing the same concentration of farnesyl transferase inhibitor as the top layer. After the top layer is solidified, plates can be incubated for 10-16 days at 37° C. under 5% CO2 to allow colony outgrowth. After incubation, the colonies can be stained by overlaying the agar with a solution of MTT (3-[4,5-dimethyl-thiazol-2-yl]-2,5-diphenyltetrazolium bromide, Thiazolyl blue) (1 mg/mL in PBS). Colonies can be counted and the IC50's can be determined.

Structure (SMILES) | IC50 [1] | IC50 (Human tumor cells) [nM]
Cn1cncc1[C@H](NC(=O)OC1(C)CC1)C1=Cc2cccnc2[C@@H](N2CCN(C(=O)OC3(C)CC3)CC2)c2ccc(Cl)cc21 [Compound 108.1] | 0.5 to 5 nM and 1.5 nM | < 0.5
COC1(C(=O)N[C@H](C2=Cc3cccnc3[C@@H](N3CCN(C(=O)OCC(C)(C)C)CC3)c3ccc(Cl)cc32)c2cncn2C)CC1 [Compound 119.1] | 0.5 to 5 nM | 
COC1(C(=O)N[C@H](C2=Cc3cccnc3[C@@H](N3CCN(C(=O)OCC4(C)CC4)CC3)c3ccc(Cl)cc32)c2cncn2C)CC1 [Compound 120.1] | 0.5 to 5 nM | 
COCC(=O)N[C@H](C1=Cc2cccnc2[C@@H](N2CCN(C(=O)OC(C)C)CC2)c2ccc(Cl)cc21)c1cncn1C [Compound 136.1] | 0.5 to 5 nM and 0.6 nM | 0.6
COC1(C(=O)N[C@H](C2=Cc3cccnc3[C@@H](N3CCN(C(=O)OC(C)C)CC3)c3ccc(Cl)cc32)c2cncn2C)CC1 [Compound 152.1, 4-{8-Chloro-6-[[(1-methoxy-cyclopropanecarbonyl)-amino]-(3-methyl-3H-imidazol-4-yl)-methyl]-11H-benzo[5.6]cyclohepta[1,2-b]pyridin-11-yl}-piperazine-1-carboxylic acid isopropyl ester] | 0.5 to 5 nM | 

Next, values leading:

IC50 [1] | IC50 (Human tumor cells) [nM] | Structure (SMILES)
0.5 to 5 nM |  | Cn1cncc1[C@H](NC(=O)OC1(C2CC2)CC1)C1=Cc2cccnc2[C@@H](N2CCN(C(=O)OC3CCCC3)CC2)c2ccc(Cl)cc21 [Compound 112.1, 4-{6-[(Bicyclopropyl-1-yloxycarbonylamino)-(3-methyl-3H-imidazol-4-yl)-methyl]-8-chloro-11H-benzo[5,6]cyclohepta[1,2-b]pyridin-11-yl}-piperazine-1-carboxylic acid cyclopentyl ester]
0.5 to 5 nM |  | CC(C)C1(OC(=O)N2CCN([C@H]3c4ccc(Cl)cc4C([C@@H](NC(=O)OC4(C)CC4)c4cncn4C)=Cc4cccnc43)CC2)CC1 [Compound 118.1]
